Test [1] relates to L-FABP mRNA in human urinary exfoliated cells (human renal tubular epithelial cells). The experiment in a line: L-FABP up-regulating activity at mRNA level (RT-PCR) in human urinary exfoliated cells. The test is classed as cell-based. To be noted: 10 μM (Table 1), listed as THA. The method, then:
Renal tubular epithelial cells exfoliated from kidney tissues into urine (hereafter, referred to as “urinary exfoliated cell”) were isolated from human urine sample and cultured in the following manner. Firstly, urine samples from male infant nephritis patients (0-3 years old) were collected using the clean-catch method. The urine samples were then centrifuged (1000 rpm, 10 minutes) at room temperature and the supernatant was discarded. The pellet was washed with 10% (v/v) fetal calf serum-containing Dulbecco's modified Eagle's medium twice and then with culture medium once. The culture medium used herein was a mixture (1:1) of Dulbecco's modified Eagle's medium and Ham's F-12 medium, to which mixture was added fetal calf serum (10% v/v), insulin (5 μg/ml), transferrin (5 μg/ml), sodium selenite (5 ng/ml), dexamethasone (10^−8 M), nicotinamide (5 mM), penicillin (100 IU/ml) and streptomycin (100 μg/ml). The pellet was suspended into the culture medium, diluted appropriately and then cultured in collagen type 4-coated dish (3.5 cm in diameter, Falcon). The cultivation was performed under the condition of 5% CO2, 37° C. […] Also, in order to normalize the measurement values, rBAT (related to b^0,+ system amino acid transporter; Purroy et. al., Genomics, Vol 37. pp. 249-252, 1996) mRNA was detected as control by RT-PCR.

The subject of another test is human L-FABP. The experiment in a line: L-FABP up-regulating activity at protein level (Western blotting or ELISA) in LLC-PK1 or mouse immortalized renal tubular epithelial cells carrying the human L-FABP chromosomal gene. The test is classed as cell-based. To be noted: 1 μM, serum-free DMEM; anti-human L-FABP antibody. The source says:
The plasmid isolated in Example 1, (2) above, which contains human L-FABP chromosomal gene (entire length), was linealized and transfected into the porcine renal tubular cell line LLC-PK1 or mouse immortalized renal tubular epithelial cells prepared in a manner similar to that described in Example 2 (3) above to obtain stable transformed cell lines. The human L-FABP chromosomal gene was integrated into these cells on their chromosome without deletion. Using these cells, L-FABP up-regulating activity of test compounds were examined at RNA level and protein level in the following manner. Cells were cultured to become confluent, when the medium was replaced with serum-free DMEM medium, and test compounds were added to the medium at final concentration of 1 μM. The cultivation was continued at 37° C. Control sample was obtained without adding any test compounds. Measurement at protein level was carried out in the following manner. Cultivated cells were collected and sonicated and then cell extract was prepared. The amount of L-FABP in the extract was detected by Western Blotting method or ELISA method with anti-human L-FABP antibody. […] The up-regulating effect on L-FABP protein expression was also observed when Etomoxir was added.

Test [2] concerns human L-FABP gene transcriptional regulatory region (luciferase reporter). The experiment in a line: L-FABP up-regulating activity by luciferase reporter assay in proximal renal tubular epithelial cell line mProx 37-13. The test is classed as cell-based. To be noted: mProx 37-13 cells, serum-free medium, luciferase measured after 2 to 10 hours; FIG. 4. The method, then:
A test substance was examined for the L-FABP up-regulating activity by reporter assay method in the following manner using the proximal renal tubular epithelial cell line mProx 37-13 (also referred as “cell line No. 13”) comprising L-FABP reporter DNA construct and was prepared in Example 2 above. Firstly, the cell line mProx 37-13 was added in 96-well flat-bottom plates at 5×10^4 cells/ 100 μl/well and cultured. The cultivation was conducted using plates pre-coated with 0.1% gelatin and, as a medium, a high glucose-containing Dulbecco's MEM medium (Dulbecco's MEM, high glucose; DMEM) (Gibco) supplemented with 10% fetal calf serum, 100 unit/ml of penicillin and 100 μg/ml of streptomycin. […] After additional cultivation, Luciferase activity was detected after 2 to 10 hours. Luciferase activity was measured in the following way. […] After the plate stored at −80° C. was allowed to become room temperature, 100 μl of luminescence substrate solution (PicaGene luminescence kit, TOYO INK) was added to initiate reaction. Amount of luminescence was detected using luminometer (MicroLumat LP98P, BERTHOLD). […] The luciferase induction rate (Luc induction rate) was calculated based on the activity value according to the following equation: Luc induction rate=(test value)/(control value).

The subject of a further test is human L-FABP mRNA. The experiment in a line: L-FABP up-regulating activity at mRNA level (RT-PCR) in LLC-PK1 or mouse immortalized renal tubular epithelial cells carrying the human L-FABP chromosomal gene. The test is classed as cell-based. To be noted: 1 μM, serum-free DMEM; from 15 minute to 24 hour after beginning of cultivation; normalised to GAPDH mRNA. The source says:
The plasmid isolated in Example 1, (2) above, which contains human L-FABP chromosomal gene (entire length), was linealized and transfected into the porcine renal tubular cell line LLC-PK1 or mouse immortalized renal tubular epithelial cells prepared in a manner similar to that described in Example 2 (3) above to obtain stable transformed cell lines. The human L-FABP chromosomal gene was integrated into these cells on their chromosome without deletion. Using these cells, L-FABP up-regulating activity of test compounds were examined at RNA level and protein level in the following manner. Cells were cultured to become confluent, when the medium was replaced with serum-free DMEM medium, and test compounds were added to the medium at final concentration of 1 μM. The cultivation was continued at 37° C. Control sample was obtained without adding any test compounds. Measurement at mRNA level was carried out in the following manner. After cultivation, cells were collected and total RNA was prepared. […] Also, in order to normalize the measurement values, GAPDH (glyceraldehyde 3-phosphate dehydrogenase) mRNA was detected as control in the similar RT-PCR. The resulted PCR products were subjected to agarose-gel electrophoresis, the gel was stained with ethidium bromide to detect bands respectively and the expression amount was determined by densitometry, or visually.

Test [3] has as its system adriamycin-induced glomerular sclerosis hFABP-Tg mouse. The experiment in a line: Adriamycin-induced glomerular sclerosis model in transgenic mouse introduced with human L-FABP gene (hFABP-Tg mouse). The test is classed as in vivo. To be noted: 10 mg/kg. The method, then: Transgenic mouse (hFABP-Tg mouse) introduced with human L-FABP gene was prepared. The hFABP-Tg mouse was used to make renal disease model similar to that of Example 8 and the effect of MCC-555 was identified.
In the preparation of hFABP-Tg mouse, male BCF1 mouse (13-week or over) was used for sterile mating and natural mating; female ICR mouse (10-week or over) for embryo transplant and as a foster mother; male BDF1 mouse (13-week or over) for mating; and female BCF1 mouse (8-week or over) for collection of eggs, respectively. The resultant transgenic mouse (B6C3F1 line) was used to backcross with BALB/c mouse.
The resultant female transgenic mouse was used to prepare a renal disease model (adriamycin-induced glomerular sclerosis model) and to confirm effects of drug (MCC-555). The preparation of disease model and confirmation of effect of a drug were conducted in a similar manner to that described in Example 8 above except that the dose of adriamycin on the first experiment day (Day 0) was 15 mg/kg (15 ml/kg, dissolved in saline at concentration of 1 mg/ml).
In drug administration group (n=5), MCC-555 (10 mg/kg) was administered to mice that have received adriamycin, and in control group (at the beginning of experiment, n=5), only carrier was administered to mice that have received adriamycin, In normal group (n=3), mice that were not treated with adriamycin received carrier. Collection of urine was performed 3 times in total, i.e., day 6-7 day (Day 7), day 10-11 (Day 11), and day 13-14 (Day 14) and urinary protein, NAG and creatinine concentrations were determined by Automated clinical analyzer after measurements of urine volume.

The subject of test [4] is adriamycin-induced glomerular sclerosis mouse. The experiment in a line: Adriamycin-induced glomerular sclerosis model mouse (BALB/c). The test is classed as in vivo. An excerpt:
An adriamycin-induced glomerular sclerosis mouse was used as a renal disease model to confirm effect of PPAR agonist MCC-555 in the following manner. An adriamycin(AD)-induced glomerular sclerosis mouse is a pathological model which develops focal glomerular sclerosis in 3 weeks after the onset of nephrosis symptom while showing the symptom and eventually results in irreversible chronic renal insufficiency (Chen et. al., Nephron, vol. 78, pp.440-452, 1998). As shown in Examples 3, 4 and 5, MCC-555 is a compound confirmed to have L-FABP up-regulating activity. In the experiment, 7-week-age female BALB/c mice (purchased from Charles River Japan, Inc.) were used. At the first day of experiment (Day 0), Adriamycin (Sigma) was administered intravenously at 10 mg/kg (10 ml/kg dissolved in saline at 1 mg/ml). Normal group received intravenously an equivalent amount of saline only. To the mice were administered orally MCC-555 or carrier alone for 14 days from the first day of experiment (Day 0 to Day 13). The administration was initially conducted 1 hour before the adriamycin administration, and administration volume was 10 ml/kg for each time. In drug administration group (n=6), MCC-555 (suspension in 0.1% Tween 80-containing purified water) was administered at a dose of 10 mg/kg to mice that have received adriamycin. In control group (n=6), carrier (0.1% Tween 80-containing purified water) alone was administered to mice that have received adriamycin. Also in normal group (n=3), mice received carrier alone. Mice were separately housed in “a metabolic cage” and allowed to access food and water ad libitum while collecting urine for 24 hours. Specifically, collection of urine was performed 4 times in total, i.e., day 3-4, day 6-7, day 9-10, and day 13-14. Following measurement of volume, the collected urine was subjected to determination of urinary protein, NAG (N-acetyl-β-D-glucosaminidase) and creatinine (CRE) concentrations by clinical chemistry analyzer (SuperZ-818, […] Co.) After the collection of urine on the last experiment day (Day 14), blood was collected via abdominal aorta under ethereal anesthetization and serum was separated. Cholesterol and albumin were determined using Automated clinical analyzer TBA-80FR (TOSHIBA). Also, kidneys were isolated and fixed with neutral buffered formalin.

Setting [5] is: adriamycin 15 mg/kg, Day 7, 11, 14, FIG. 9.

Turning to `CCCc1c(OCCCCCCc2nn[nH]n2)ccc(C(C)=O)c1O` [4-THA, 2-hydroxy-3-propyl-4-[6-(tetrazol-5-yl)hexyloxy]acetophenone], the “L-FABP mRNA” value in test [1] is “increased”.

In the case of `CCOC(=O)C1(CCCCCCOc2ccc(Cl)cc2)CO1` (stereo not shown) [Etomoxir, ethyl 2-[6-(4-chlorophenoxy)hexyl]oxiranecarboxylate], in the test with human L-FABP, the “Up-regulating effect on L-FABP protein expression” value was “also observed”. In addition, in test [2], the “Induction of luciferase activity (L-FABP up-regulating activity)” value was “Induction of luciferase activity was observed”.

Take `O=C1NC(=O)C(Cc2ccc3cc(OCc4ccccc4F)ccc3c2)S1` (stereo not shown) [MCC-555, 5-[6-(2-fluorobenzyloxy)naphthalene-2-ylmethyl]thiazolidine-2,4-dione]: in the test with human L-FABP mRNA, the “Induction of L-FABP mRNA” value is reported as “induction of L-FABP mRNA was observed”. Also, the “Up-regulating effect on L-FABP protein expression” value in the test with human L-FABP is “up-regulating effect on L-FABP protein expression was observed”. Also, in test [3] (setting [5]), the “Increase of NAG excretion amount after AD administration” value is given as “significantly suppressed” and the “Increase of urinary protein after AD administration” value was “significantly suppressed”. In test [3] (n=5, in the control group 3 animals died), the “Animals died during the experiment” value is “no animals died”. Moreover, the “Induction of luciferase activity (L-FABP up-regulating activity)” value in test [2] is recorded as “Induction of luciferase activity was observed”. The “Histological changes of kidney (tissue imaging examination)” value in test [4] (10 mg/kg orally for 14 days) is on record as “inhibited”. Further, in test [4] (10 mg/kg orally for 14 days (Day 0 to Day 13), adriamycin 10 mg/kg i.v., FIG. 7), the “NAG excretion (index of proximal renal tubular injury)” value is recorded as “suppressed”. Also, the “Proteinuria (urinary protein)” value in test [4] (10 mg/kg orally for 14 days, adriamycin 10 mg/kg i.v., FIG. 7) is given as “improved”. The “Blood biochemical examination parameters (blood cholesterol and albumin level)” value in test [4] (10 mg/kg orally for 14 days, serum at Day 14, FIG. 8) was “improved”.

The values are drawn from patent publication US6794154B1, “Remedies for kidney diseases and method for screening the same” (Tanabe Seiyaku Co., Ltd., priority 1999, dated 2004).
